In the supplement of paper PMC10307832:

Tests used:
Experiment in all cases: relative viability (nuclei count vs DMSO), 5 days (fraction); higher = more cells survive
Neratinib + Tozasertib = compound: CCOc1cc2ncc(C#N)c(Nc3ccc(OCc4ccccn4)c(Cl)c3)c2cc1NC(=O)/C=C/CN(C)C [Neratinib] + Cc1cc(Nc2cc(N3CCN(C)CC3)nc(Sc3ccc(NC(=O)C4CC4)cc3)n2)n[nH]1 [Tozasertib] (partner 0.1 µM)
Summary of the method: (§1)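 After 5 days of treatment, lung cancer cells in 1536-well plates were fixed and stained in a single step (final 0.05% Triton X-100, 1% formaldehyde, 1 ug/ml Hoechst) and their nuclei counted on 4× images. Treatment had been applied by pin tool the day after seeding as one drug alone or as a fixed anchor-drug dose with five library-drug doses (not always all listed) in √10 steps. Relative viability is the nuclei count of treated wells divided by that of vehicle wells, and values are medians of duplicate plates.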

Neratinib + Bortezomib = compound: CCOc1cc2ncc(C#N)c(Nc3ccc(OCc4ccccn4)c(Cl)c3)c2cc1NC(=O)/C=C/CN(C)C [Neratinib] + CC(C)C[C@H](NC(=O)[C@H](Cc1ccccc1)NC(=O)c1cnccn1)B(O)O [Bortezomib] (partner 0.002 µM)
Summary of the method: as §1

Neratinib + Decitabine = compound: CCOc1cc2ncc(C#N)c(Nc3ccc(OCc4ccccn4)c(Cl)c3)c2cc1NC(=O)/C=C/CN(C)C [Neratinib] + Nc1ncn([C@H]2C[C@H](O)[C@@H](CO)O2)c(=O)n1 [Decitabine] (partner 2 µM)
Summary of the method: as §1

Neratinib + AZD7762 = compound: CCOc1cc2ncc(C#N)c(Nc3ccc(OCc4ccccn4)c(Cl)c3)c2cc1NC(=O)/C=C/CN(C)C [Neratinib] + NC(=O)Nc1cc(-c2cccc(F)c2)sc1C(=O)N[C@H]1CCCNC1 [AZD7762] (partner 0.2 µM)
Summary of the method: as §1

201T
relative viability (Neratinib + Tozasertib; first compound 0.01 µM): 1.14 | relative viability (Neratinib + Tozasertib; first compound 0.03162 µM): 0.945 | relative viability (Neratinib + Tozasertib; first compound 0.1 µM): 0.848 | relative viability (Neratinib + Tozasertib; first compound 0.3162 µM): 0.858 | relative viability (Neratinib + Tozasertib; first compound 1 µM): 0.766 | relative viability (Neratinib + Bortezomib; first compound 0.01 µM): 1.08 | relative viability (Neratinib + Bortezomib; first compound 0.03162 µM): 1.1 | relative viability (Neratinib + Bortezomib; first compound 0.1 µM): 1.06 | relative viability (Neratinib + Bortezomib; first compound 0.3162 µM): 1.12 | relative viability (Neratinib + Bortezomib; first compound 1 µM): 1.09 | relative viability (Neratinib + Decitabine; first compound 0.01 µM): 0.858 | relative viability (Neratinib + Decitabine; first compound 0.03162 µM): 0.857 | relative viability (Neratinib + Decitabine; first compound 0.3162 µM): 0.853 | relative viability (Neratinib + Decitabine; first compound 1 µM): 0.84 | relative viability (Neratinib + AZD7762; first compound 0.01 µM): 0.672 | relative viability (Neratinib + AZD7762; first compound 0.03162 µM): 0.618 | relative viability (Neratinib + AZD7762; first compound 0.1 µM): 0.447 | relative viability (Neratinib + AZD7762; first compound 0.3162 µM): 0.59 | relative viability (Neratinib + AZD7762; first compound 1 µM): 0.527

NCI-H1915
relative viability (Neratinib + Tozasertib; first compound 0.01 µM): 0.42 | relative viability (Neratinib + Tozasertib; first compound 0.03162 µM): 0.475 | relative viability (Neratinib + Tozasertib; first compound 0.1 µM): 0.402 | relative viability (Neratinib + Tozasertib; first compound 0.3162 µM): 0.39 | relative viability (Neratinib + Tozasertib; first compound 1 µM): 0.346 | relative viability (Neratinib + Bortezomib; first compound 0.01 µM): 1.06 | relative viability (Neratinib + Bortezomib; first compound 0.03162 µM): 1.03 | relative viability (Neratinib + Bortezomib; first compound 0.1 µM): 0.952 | relative viability (Neratinib + Bortezomib; first compound 0.3162 µM): 0.874 | relative viability (Neratinib + Bortezomib; first compound 1 µM): 0.962 | relative viability (Neratinib + Decitabine; first compound 0.01 µM): 0.262 | relative viability (Neratinib + Decitabine; first compound 0.03162 µM): 0.271 | relative viability (Neratinib + Decitabine; first compound 0.1 µM): 0.251 | relative viability (Neratinib + Decitabine; first compound 0.3162 µM): 0.241 | relative viability (Neratinib + Decitabine; first compound 1 µM): 0.286 | relative viability (Neratinib + AZD7762; first compound 0.01 µM): 0.791 | relative viability (Neratinib + AZD7762; first compound 0.03162 µM): 0.716 | relative viability (Neratinib + AZD7762; first compound 0.1 µM): 0.638 | relative viability (Neratinib + AZD7762; first compound 0.3162 µM): 0.685 | relative viability (Neratinib + AZD7762; first compound 1 µM): 0.653

NCI-H2023
relative viability (Neratinib + Tozasertib; first compound 0.01 µM): 0.389 | relative viability (Neratinib + Tozasertib; first compound 0.03162 µM): 0.33 | relative viability (Neratinib + Tozasertib; first compound 0.1 µM): 0.292 | relative viability (Neratinib + Tozasertib; first compound 0.3162 µM): 0.211 | relative viability (Neratinib + Tozasertib; first compound 1 µM): 0.141 | relative viability (Neratinib + Bortezomib; first compound 0.01 µM): 1.08 | relative viability (Neratinib + Bortezomib; first compound 0.03162 µM): 1.08 | relative viability (Neratinib + Bortezomib; first compound 0.1 µM): 0.802 | relative viability (Neratinib + Bortezomib; first compound 0.3162 µM): 0.995 | relative viability (Neratinib + Bortezomib; first compound 1 µM): 0.69 | relative viability (Neratinib + Decitabine; first compound 0.01 µM): 0.245 | relative viability (Neratinib + Decitabine; first compound 0.03162 µM): 0.232 | relative viability (Neratinib + Decitabine; first compound 0.1 µM): 0.206 | relative viability (Neratinib + Decitabine; first compound 0.3162 µM): 0.217 | relative viability (Neratinib + Decitabine; first compound 1 µM): 0.376

SK-LU-1
relative viability (Neratinib + Tozasertib; first compound 0.01 µM): 0.292 | relative viability (Neratinib + Tozasertib; first compound 0.03162 µM): 0.305 | relative viability (Neratinib + Tozasertib; first compound 0.1 µM): 0.277 | relative viability (Neratinib + Tozasertib; first compound 0.3162 µM): 0.294 | relative viability (Neratinib + Tozasertib; first compound 1 µM): 0.227 | relative viability (Neratinib + Bortezomib; first compound 0.01 µM): 1.3 | relative viability (Neratinib + Bortezomib; first compound 0.03162 µM): 1.5 | relative viability (Neratinib + Bortezomib; first compound 0.1 µM): 1.34 | relative viability (Neratinib + Bortezomib; first compound 0.3162 µM): 1.14 | relative viability (Neratinib + Bortezomib; first compound 1 µM): 0.504 | relative viability (Neratinib + Decitabine; first compound 0.01 µM): 0.662 | relative viability (Neratinib + Decitabine; first compound 0.03162 µM): 0.796 | relative viability (Neratinib + Decitabine; first compound 0.1 µM): 0.588 | relative viability (Neratinib + Decitabine; first compound 0.3162 µM): 0.579 | relative viability (Neratinib + Decitabine; first compound 1 µM): 0.421

SK-MES-1
relative viability (Neratinib + Tozasertib; first compound 0.01 µM): 0.947 | relative viability (Neratinib + Tozasertib; first compound 0.03162 µM): 0.996 | relative viability (Neratinib + Tozasertib; first compound 0.1 µM): 0.955 | relative viability (Neratinib + Tozasertib; first compound 0.3162 µM): 0.631 | relative viability (Neratinib + Tozasertib; first compound 1 µM): 0.21 | relative viability (Neratinib + Decitabine; first compound 0.01 µM): 0.401 | relative viability (Neratinib + Decitabine; first compound 0.03162 µM): 0.403 | relative viability (Neratinib + Decitabine; first compound 0.1 µM): 0.3 | relative viability (Neratinib + Decitabine; first compound 0.3162 µM): 0.299 | relative viability (Neratinib + Decitabine; first compound 1 µM): 0.221

LK-2
relative viability (Neratinib + Tozasertib; first compound 0.01 µM): 0.159 | relative viability (Neratinib + Tozasertib; first compound 0.03162 µM): 0.179 | relative viability (Neratinib + Tozasertib; first compound 0.1 µM): 0.205 | relative viability (Neratinib + Tozasertib; first compound 0.3162 µM): 0.189 | relative viability (Neratinib + Tozasertib; first compound 1 µM): 0.172 | relative viability (Neratinib + Decitabine; first compound 0.01 µM): 0.321 | relative viability (Neratinib + Decitabine; first compound 0.03162 µM): 0.372 | relative viability (Neratinib + Decitabine; first compound 0.1 µM): 0.305 | relative viability (Neratinib + Decitabine; first compound 0.3162 µM): 0.225 | relative viability (Neratinib + Decitabine; first compound 1 µM): 0.24 | relative viability (Neratinib + AZD7762; first compound 0.01 µM): 0.358 | relative viability (Neratinib + AZD7762; first compound 0.03162 µM): 0.309 | relative viability (Neratinib + AZD7762; first compound 0.1 µM): 0.368 | relative viability (Neratinib + AZD7762; first compound 0.3162 µM): 0.145 | relative viability (Neratinib + AZD7762; first compound 1 µM): 0.175

NCI-H2342
relative viability (Neratinib + Tozasertib; first compound 0.01 µM): 0.414 | relative viability (Neratinib + Tozasertib; first compound 0.03162 µM): 0.52 | relative viability (Neratinib + Tozasertib; first compound 0.1 µM): 0.441 | relative viability (Neratinib + Tozasertib; first compound 0.3162 µM): 0.455 | relative viability (Neratinib + Tozasertib; first compound 1 µM): 0.358 | relative viability (Neratinib + Decitabine; first compound 0.03162 µM): 0.829 | relative viability (Neratinib + Decitabine; first compound 0.1 µM): 0.743 | relative viability (Neratinib + Decitabine; first compound 0.3162 µM): 0.558 | relative viability (Neratinib + Decitabine; first compound 1 µM): 0.649 | relative viability (Neratinib + AZD7762; first compound 0.01 µM): 0.519 | relative viability (Neratinib + AZD7762; first compound 0.03162 µM): 0.499 | relative viability (Neratinib + AZD7762; first compound 0.1 µM): 0.408 | relative viability (Neratinib + AZD7762; first compound 0.3162 µM): 0.267 | relative viability (Neratinib + AZD7762; first compound 1 µM): 0.379

NCI-H1944
relative viability (Neratinib + Tozasertib; first compound 0.01 µM): 0.255 | relative viability (Neratinib + Tozasertib; first compound 0.03162 µM): 0.248 | relative viability (Neratinib + Tozasertib; first compound 0.1 µM): 0.221 | relative viability (Neratinib + Tozasertib; first compound 0.3162 µM): 0.218 | relative viability (Neratinib + Tozasertib; first compound 1 µM): 0.16 | relative viability (Neratinib + Decitabine; first compound 0.01 µM): 0.458 | relative viability (Neratinib + Decitabine; first compound 0.03162 µM): 0.482 | relative viability (Neratinib + Decitabine; first compound 0.1 µM): 0.423 | relative viability (Neratinib + Decitabine; first compound 0.3162 µM): 0.389 | relative viability (Neratinib + Decitabine; first compound 1 µM): 0.39 | relative viability (Neratinib + AZD7762; first compound 0.01 µM): 0.584 | relative viability (Neratinib + AZD7762; first compound 0.03162 µM): 0.621 | relative viability (Neratinib + AZD7762; first compound 0.1 µM): 0.4 | relative viability (Neratinib + AZD7762; first compound 0.3162 µM): 0.505 | relative viability (Neratinib + AZD7762; first compound 1 µM): 0.313
